{
  "source": "patent US20220193047A1",
  "about": "“METHODS OF ENHANCING RADIOTHERAPY USING FERROPTOSIS INDUCERS AS RADIOSENSITIZERS” (THE TRUSTEES OF COLUMBIA UNIVERSITY IN THE CITY OF NEW YORK, priority 2019, published 2022)",
  "format_in_all_cases": "cell-based",
  "key": {"SK-LMS-1 cells": {"tested_on": "SK-LMS-1 cells", "assay": "Clonogenic assay with radiation, SK-LMS-1", "description": "(§1) 500 cells were seeded per well in 6-well plates in their respective growth media and incubated overnight. The next day, cells were co-treated with DMSO or compounds and radiation using a Gammacell 40 Caesium-137 irradiator (Theratronics). Plates were monitored every day using a light microscope for formation of colonies in the DMSO-treated wells. When colonies of >50 cells are clearly visible, the growth medium was discarded from all plates. The cells were washed with PBS, then fixed and stained with crystal violet solution (0.05% crystal violet, 1% formaldehyde, 1% methanol in PBS). Colonies were then directly visualized and counted.\n(§2) The coefficient of drug interaction (CDI), used to compute interaction between two drugs, was used to quantify synergy between cell death inducers and radiation according to the formula CDI=AB/(A×B), where AB is the surviving fraction of the combination treatment, and A and B are the surviving fractions of the individual treatments. […]\n(§3) It was then tested whether cell death enhancement of radiation with ferroptosis inducers occurred across diverse tumor cell types. […] In addition to the initial ferroptosis-sensitive HT-1080 sarcoma cell line, glioma and lung cancer cells were evaluated, due to the clinical relevance of radiation therapy for the treatment of these tumor types. […]"}, "U87 cells": {"tested_on": "U87 cells", "assay": "Clonogenic assay with radiation, U87", "description": "as §1, §2, §3"}, "A549 cells": {"tested_on": "A549 cells", "assay": "Clonogenic assay with radiation, A549", "description": "as §1, §2, §3"}, "PC9 cells": {"tested_on": "PC9 cells", "assay": "Clonogenic assay with radiation, PC9", "description": "as §1, §2, §3"}, "PTGS2 mRNA": {"tested_on": "PTGS2 mRNA", "assay": "RT-qPCR of PTGS2 mRNA", "conditions": "HT-1080, 6 Gy radiation, 24 hours; 100 nM RSL3 or 10 μM ferrostatin-1", "description": "RNA was extracted using the Qiashredder and QIAGEN RNeasy Mini kits (QIAGEN) according to the manufacturer's protocol. 2 μg total RNA for each sample was used as input for each reverse transcription reaction. Quantitative PCR reactions were performed using the Power SYBR Green PCR Master Mix (Thermo Fisher Scientific). Triplicate samples per condition were analyzed on an Applied Biosystems 7300 qPCR instrument using absolute quantification settings. Differences in mRNA levels compared to ACTB internal reference control were computed between control and experimental conditions using the ΔΔCt method. The primers used in this study are listed below."}, "HT-1080 cells": {"tested_on": "HT-1080 cells", "assay": "Microbeam irradiation and clonogenic assay", "conditions": "HT-1080, clonogenic survival", "protocol": "300-500 HT-1080 cells were plated on polypropylene film treated with 3.5 μg/cm^2 Cell-Tak adhesive (BD Biosciences). The next day, cells were stained with Hoechst 33342 for 30 min. Cells were imaged, and their center-of-gravity coordinates were registered to automatically locate them by the microbeam control program. For nuclear irradiation, protons (^1H+) were directed by a precision beam to the center of the nucleus. For cytoplasmic irradiation, protons were directed to two locations 7 μm away from the ends of the major axis of each nucleus, as previously described (Wu et al., 1999). In each case, the beam has an accuracy of ±0.2 μm with 95% efficiency. Post-irradiation, cells were trypsinized and re-plated at a density of 500 cells per well in 6-well plates for clonogenic assays.\nTo target the microbeam, cells were labeled with Hoechst stain and imaged. Nuclear radiation was delivered to the center of gravity of the cell nucleus, whereas cytoplasmic radiation was delivered to two sites 7 microns away from the nuclear edge along the nuclear long axis (FIG. 5A). Using this method, we first established dose responses of these cells to nuclear and cytoplasmic radiation. […] Compared to conventional photon radiation, these doses approximately correspond to 1 Gy to the nucleus and between 1-5 Gy to the cytoplasm, a therapeutically relevant dose range that is consistent with our previous experiments."}, "malondialdehyde (MDA)": {"tested_on": "malondialdehyde (MDA)", "assay": "TBARS assay of MDA levels", "conditions": "HT-1080, 24 h; 1 μM IKE or 10 μM ferrostatin-1, with or without 6 Gy radiation", "description": "2 million cells were seeded in T175 flasks. […] The whole lysate was used to determine MDA concentration in each sample. We used the TBARS assay kit (Cayman Chemical) and followed the product instructions.\nNext, levels of malondialdehyde (MDA), a biomarker for lipid peroxidation and ferroptosis, were quantified using an assay that measures thiobarbituric acid reactive substances (TBARS) (Gaschler et al., 2018). In this assay, thiobarbituric acid (TBA) was added to cell lysates and heated under acidic conditions to form the MDA-TBA adduct, which was measured colorimetrically."}, "[1]": {"tested_on": "human glioma slice cultures", "assay": "Human glioma organotypic slice cultures, H2DCFDA ROS by flow cytometry", "description": "Human surgical specimens were collected from Columbia University Medical Center operating theaters in accordance with Institutional Review Board protocols. Surgical specimens were deidentified, placed in a sterile 50 mL conical tube containing ice-cold sucrose solution (210 mM sucrose, 10 mM glucose, 2.5 mM KCl, 1.25 mM NaH2PO4, 0.5 mM CaCl2), 7 mM MgCl2 and 26 mM NaHCO3). Tissue specimens were let rest in the sucrose solution for 20 minutes. Tissue specimens were then cut into 300 μm sections using a Mcllwain Tissue Chopper. Sections after cutting were let rest in the sucrose solution for 20 minutes. Then the tissue sections were transferred onto Millicell cell culture inserts ([…], 30 mm diameter) and placed in 6-well plates containing 1.5 mL of media. The media consisted of DMEM/F12 plus N−2 Supplement. […]\nTo further study the potential of combining small-molecule ferroptosis inducers and radiation for human therapeutic use, ex vivo samples of human glioma, which have been immediately cut from freshly resected tumors and grown as organotypic slice cultures, were used as previously described (Parker et al., 2017). De-identified patient information for these tumor samples are recorded in Table 4. […] Tumor cell viability within slices was not assessed, as the number of tumor cells embedded in each slice cannot be normalized between slices."}, "[2]": {"tested_on": "reduced glutathione (GSH) in HT-1080 cells", "assay": "Reduced glutathione measurement in cells", "conditions": "HT-1080, irradiated cells (2 or 6 Gy, 24 hours) co-treated with 2 μM IKE", "description": "Cystine taken up by system xc^− is reduced to cysteine, a building block in the biosynthesis of glutathione. […] Using a fluorometric GSH probe, we observed that treatment with 2 or 6 Gy radiation for 24 hours depleted GSH in a dose-dependent manner in HT-1080 cells (FIG. 2E). […] Indeed, the decrease in colony formation of HT-1080 cells following 2 or 4 Gy radiation was rescued by either glutathione methyl ester or N-acetylcysteine, which is a biological precursor to glutathione (FIG. 9)."}},
  "data": [
    {"smiles": "COC(=O)c1ccc([C@@H]2c3[nH]c4ccccc4c3C[C@@H](C(=O)OC)N2C(=O)CCl)cc1", "note": "[RSL3, Ras Synthetic Lethal 3]", "values": [
      {"measurement": "Highest observed coefficient of Drug Interaction (CDI) in combination with IR", "setting": "SK-LMS-1 cells", "value": 0.31},
      {"measurement": "Highest observed coefficient of Drug Interaction (CDI) in combination with IR", "setting": "U87 cells", "value": 0.31},
      {"measurement": "Highest observed coefficient of Drug Interaction (CDI) in combination with IR", "setting": "A549 cells", "value": 0.31},
      {"measurement": "Highest observed coefficient of Drug Interaction (CDI) in combination with IR", "setting": "PC9 cells", "value": 0.64},
      {"measurement": "PTGS2 mRNA", "setting": "PTGS2 mRNA", "value": "even further enhanced"},
      {"measurement": "Synergy with cytoplasmic microbeam radiation", "setting": "HT-1080 cells", "value": "synergized strongly"},
      {"measurement": "Synergy with nuclear microbeam radiation", "setting": "HT-1080 cells", "value": "no synergy"}
    ]},
    {"smiles": "CCOC(=O)c1ccc(NC2CCCCC2)c(N)c1", "note": "[ferrostatin-1]", "values": [
      {"measurement": "PTGS2 mRNA", "setting": "PTGS2 mRNA", "value": "reversed this induction of PTGS2"},
      {"measurement": "MDA levels", "setting": "malondialdehyde (MDA)", "value": "significantly lower levels of MDA"},
      {"measurement": "ROS accumulation with IKE and radiation, ferrostatin-1 co-treatment", "setting": "[1]; 10 μM ferrostatin-1", "value": "partially suppressible"}
    ]},
    {"smiles": "CC(C)Oc1ccc(C(=O)Cn2ccnc2)cc1-n1c(CN2CCN(C(=O)COc3ccc(Cl)cc3)CC2)nc2ccccc2c1=O", "note": "[IKE, imidazole ketone erastin]", "values": [
      {"measurement": "Highest observed coefficient of Drug Interaction (CDI) in combination with IR", "setting": "SK-LMS-1 cells", "value": 0.48},
      {"measurement": "Highest observed coefficient of Drug Interaction (CDI) in combination with IR", "setting": "U87 cells", "value": 0.65},
      {"measurement": "Highest observed coefficient of Drug Interaction (CDI) in combination with IR", "setting": "A549 cells", "value": 0.30},
      {"measurement": "Highest observed coefficient of Drug Interaction (CDI) in combination with IR", "setting": "PC9 cells", "value": 0.70},
      {"measurement": "MDA levels", "setting": "malondialdehyde (MDA)", "value": "significantly elevated"},
      {"measurement": "Levels of reduced glutathione", "setting": "[2]", "value": "further decreased"},
      {"measurement": "Synergy with cytoplasmic microbeam radiation", "setting": "HT-1080 cells", "value": "synergized strongly"},
      {"measurement": "ROS generation (H2DCFDA), combination with radiation vs control", "setting": "[1]; 10 μM IKE, 2 Gy radiation, 24 hours, three responsive slice cultures", "value": "significant enhancement of ROS generation"}
    ]}
  ]
}
